Measured values as given in patent US9504652B2 (Druggability Technologies IP Holdco (Jersey) Ltd., priority 2010, dated 2016).
Like-named read-outs stand apart in the source and are kept apart here.

Experiments:
[1] = cited from earlier work
[2] = tested on: human liver microsomes; conditions: cited from earlier work
[3] = over 72 hours, single oral 300 mg dose of [14C]-Aprepitant; cited from earlier work
[4] = Comparative dissolution test (wettability and redispersibility) in distillate water; assay type: physicochemical; conditions: 4.0 mg Aprepitant in 8.0 mL distillate water, stirred 10 minutes
[5] = PAMPA permeability; assay type: in vitro ADME; conditions: for Papp: PAMPA
Excerpt: The sample containing the reference compound was a suspension of crystals visible by the naked eye, while the other two samples were opalescent colloid solutions. The receiver compartment was phosphate buffered saline with 1% sodium lauryl sulphate and 5% DMSO.

## C[C@@H](O[C@H]1OCCN(Cc2n[nH]c(=O)[nH]2)[C@H]1c1ccc(F)cc1)c1cc(C(F)(F)F)cc(C(F)(F)F)c1 [Aprepitant, 5-[[(2R,3S)-2-[(1R)-1-[3,5-bis(trifluoromethyl)phenyl]ethoxy]-3-(4-fluorophenyl)-4-morpholinyl]methyl]-1,2-dihydro-3H-1,2,4-triazol-3-one]
[1]; acetonitrile
  solubility: slightly soluble
[1]; ethanol
  solubility: sparingly soluble
[1]; isopropyl acetate
  solubility: sparingly soluble
[1]; water
  solubility: practically insoluble
[2]
  CYP enzymes with no metabolism detected: No metabolism by CYP2D6, CYP2C9, or CYP2E1 was detected
  metabolizing CYP enzymes: metabolized primarily by CYP3A4 with minor metabolism by CYP1A2 and CYP2C19
[3]
  share of the radioactivity in plasma accounted for by Aprepitant: approximately 24%
[4]
  wettability and redispersibility / dissolution: did not wet and did not dissolve
[5]; FeSSIF/FaSSIF
  ratio of PAMPA permeability for FeSSIF and FaSSIF: 10.7
[5]; redispersed in FaSSIF
  Papp: 0.044 ×10⁻⁶ cm/s
[5]; redispersed in FeSSIF
  Papp: 0.471 ×10⁻⁶ cm/s
